Numbered stars: 1 amine (or outer) side, 2 acyl side, 3 side chain; on linkers, the order of the positions; unused ones are H or OH. Bridge positions count the residues as written; N and C are the ends. Square brackets hold non-standard residues; d marks the D form. Peptide text beside a SMILES is read from it. Phe(4-CH2NHiPr) = CC(C)NCc1ccc(C[C@H](N)C(=O)O)cc1; X1 = CC(C)CNCc1ccc(C[C@H](N[*:1])C(=O)[*:2])cc1
How the values were obtained:
[1] = target: Somatostatin receptor type 1 (Homo sapiens, UniProt P30872); test: Tested for ability to bind to 20 uM thick cryostat sections of a membrane pellet of cells transfected with human cloned somatostatin (sst) receptor subtype 1.
Somatostatin receptor type 1, sequence (P30872 whole entry): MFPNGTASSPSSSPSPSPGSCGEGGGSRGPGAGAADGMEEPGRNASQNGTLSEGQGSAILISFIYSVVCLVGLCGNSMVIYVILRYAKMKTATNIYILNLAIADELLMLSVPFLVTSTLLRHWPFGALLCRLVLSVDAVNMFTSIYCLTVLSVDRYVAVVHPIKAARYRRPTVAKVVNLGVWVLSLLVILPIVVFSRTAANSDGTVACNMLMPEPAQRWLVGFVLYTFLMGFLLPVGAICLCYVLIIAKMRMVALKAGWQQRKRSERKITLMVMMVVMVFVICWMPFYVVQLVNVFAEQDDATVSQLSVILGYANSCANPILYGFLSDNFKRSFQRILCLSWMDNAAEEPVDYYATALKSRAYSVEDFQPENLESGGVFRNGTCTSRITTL

[2] = target: Somatostatin receptor type 5 (Homo sapiens, UniProt P35346); test: Tested for ability to bind to 20 uM thick cryostat sections of a membrane pellet of cells transfected with human cloned somatostatin (sst) receptor subtype 5.
Somatostatin receptor type 5, sequence (P35346 whole entry): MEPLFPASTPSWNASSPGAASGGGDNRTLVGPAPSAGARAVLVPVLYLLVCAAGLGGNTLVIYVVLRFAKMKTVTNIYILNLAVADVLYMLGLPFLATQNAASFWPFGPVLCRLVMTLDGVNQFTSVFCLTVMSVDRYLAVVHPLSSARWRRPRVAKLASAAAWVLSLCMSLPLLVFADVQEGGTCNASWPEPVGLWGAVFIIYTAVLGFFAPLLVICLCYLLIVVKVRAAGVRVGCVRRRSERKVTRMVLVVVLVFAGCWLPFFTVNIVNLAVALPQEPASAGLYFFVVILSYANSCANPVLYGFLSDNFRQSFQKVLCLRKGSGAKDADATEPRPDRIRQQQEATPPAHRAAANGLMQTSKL

[3] = target: Somatostatin receptor type 3 (Homo sapiens, UniProt P32745); test: Tested for ability to bind to 20 uM thick cryostat sections of a membrane pellet of cells transfected with human cloned somatostatin (sst) receptor subtype 3.
Somatostatin receptor type 3, sequence (P32745 whole entry): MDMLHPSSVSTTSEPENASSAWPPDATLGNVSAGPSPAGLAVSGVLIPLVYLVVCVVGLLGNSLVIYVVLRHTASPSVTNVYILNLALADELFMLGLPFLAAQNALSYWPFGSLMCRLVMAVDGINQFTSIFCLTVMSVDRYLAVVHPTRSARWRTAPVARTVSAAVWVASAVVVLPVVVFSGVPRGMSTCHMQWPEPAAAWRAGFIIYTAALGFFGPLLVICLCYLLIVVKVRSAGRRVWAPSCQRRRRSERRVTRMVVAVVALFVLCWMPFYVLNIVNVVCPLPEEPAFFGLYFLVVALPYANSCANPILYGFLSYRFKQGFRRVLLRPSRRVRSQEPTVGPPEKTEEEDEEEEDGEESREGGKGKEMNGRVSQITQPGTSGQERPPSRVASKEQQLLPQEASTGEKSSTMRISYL

[4] = target: Somatostatin receptor type 2 (Homo sapiens, UniProt P30874); test: Tested for ability to bind to 20 uM thick cryostat sections of a membrane pellet of cells transfected with human cloned somatostatin (sst) receptor subtype 2.
Somatostatin receptor type 2, sequence (P30874 whole entry): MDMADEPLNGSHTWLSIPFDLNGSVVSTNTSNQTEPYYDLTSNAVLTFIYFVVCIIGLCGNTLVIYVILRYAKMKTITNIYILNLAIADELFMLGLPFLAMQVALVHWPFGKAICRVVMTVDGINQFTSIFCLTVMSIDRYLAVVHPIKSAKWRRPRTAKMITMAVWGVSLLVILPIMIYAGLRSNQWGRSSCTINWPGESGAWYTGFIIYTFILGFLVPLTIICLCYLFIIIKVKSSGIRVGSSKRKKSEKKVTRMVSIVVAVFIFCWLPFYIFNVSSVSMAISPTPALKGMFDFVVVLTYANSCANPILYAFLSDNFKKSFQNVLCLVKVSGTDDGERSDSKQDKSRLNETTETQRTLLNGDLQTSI

[5] = target: Somatostatin receptor type 4 (Homo sapiens, UniProt P31391); test: Tested for ability to bind to 20 uM thick cryostat sections of a membrane pellet of cells transfected with human cloned somatostatin (sst) receptor subtype 4.
Somatostatin receptor type 4, sequence (P31391 whole entry): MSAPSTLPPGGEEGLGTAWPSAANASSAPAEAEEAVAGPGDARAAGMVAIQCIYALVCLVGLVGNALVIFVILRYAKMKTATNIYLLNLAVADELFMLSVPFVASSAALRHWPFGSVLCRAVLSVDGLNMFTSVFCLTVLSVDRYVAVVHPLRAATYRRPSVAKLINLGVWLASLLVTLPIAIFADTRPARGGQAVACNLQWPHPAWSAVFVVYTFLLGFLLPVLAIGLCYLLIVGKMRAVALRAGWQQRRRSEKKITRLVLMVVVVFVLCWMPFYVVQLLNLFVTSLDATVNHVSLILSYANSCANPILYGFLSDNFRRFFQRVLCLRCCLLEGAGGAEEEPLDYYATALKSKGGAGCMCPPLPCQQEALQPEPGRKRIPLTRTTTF

SMILES | IC50 [1] [nM] | IC50 [2] [nM] | IC50 [3] [nM] | IC50 [4] [nM] | IC50 [5] [nM]
CC(C)NCc1ccc(C[C@@H]2NC(=O)[C@@H](Cc3c[nH]c4ccccc34)NC(=O)[C@H](Cc3ccccc3)NC(=O)[C@@H](NC(=O)[C@@H](N)Cc3ccc(O)cc3)CSSC[C@@H](C(=O)O)NC(=O)[C@H](Cc3ccccc3)NC(=O)[C@H]([C@@H](C)O)NC2=O)cc1 (H-YCF[dW][Phe(4-CH2NHiPr)]TFC-OH; disulfide 2-8) | > 1000 |  | > 1000 | > 1000 | > 1000
C[C@@H](O)[C@@H]1NC(=O)[C@H](Cc2ccccc2)NC(=O)[C@H]([C@@H](C)O)NC(=O)[C@H](Cc2ccc(CN)cc2)NC(=O)[C@@H](Cc2ccc3ccccc3c2)NC(=O)[C@H](Cc2ccccc2)NC(=O)[C@H](Cc2ccccc2)NC(=O)[C@H](CCCCN)NC(=O)[C@@H](N)CSSC[C@@H](C(=O)O)NC(=O)[C@H](CO)NC1=O | 347 | 385 | 81 | 343 | > 1000
C[C@H](N)C(=O)NCC(=O)N[C@H]1CSSC[C@@H](C(=O)O)NC(=O)[C@H](CO)NC(=O)[C@H]([C@@H](C)O)NC(=O)[C@H](Cc2ccccc2)NC(=O)[C@H]([C@@H](C)O)NC(=O)[C@H](CCCCN)NC(=O)[C@@H](Cc2c[nH]c3ccccc23)NC(=O)[C@H](Cc2ccccc2)NC(=O)[C@H](Cc2ccccc2)NC(=O)[C@H](CCCCN)NC1=O (H-AGCKFF[dW]KTFTSC-OH; disulfide 3-13) | 1 | 5 | 3.4 | 42.5 | 1.7
CCN=C(NCC)NCCCC[C@@H]1NC(=O)[C@@H](Cc2c[nH]c3ccccc23)NC(=O)[C@H](Cc2ccccc2)NC(=O)[C@H](Cc2ccccc2)NC(=O)[C@H](CCCCN)NC(=O)[C@@H](N)CSSC[C@@H](C(=O)O)NC(=O)[C@H](CO)NC(=O)[C@H]([C@@H](C)O)NC(=O)[C@H](Cc2ccccc2)NC(=O)[C@H]([C@@H](C)O)NC1=O | 450 | > 10000 | > 1000 | > 10000 | > 1000
C[C@@H](O)[C@@H]1NC(=O)[C@H](CCCCN)NC(=O)[C@@H](Cc2c[nH]c3ccccc23)NC(=O)[C@H](Cc2ccccc2)NC(=O)[C@H](Cc2ccccc2)NC(=O)[C@@H](N)CSSC[C@@H](C(=O)O)NC(=O)[C@H](Cc2ccccc2)NC1=O (H-CFF[dW]KTFC-OH; disulfide 1-8) |  |  |  | 43.8 | 1.3
CC(C)NCc1ccc(C[C@@H]2NC(=O)[C@@H](Cc3c[nH]c4ccccc34)NC(=O)[C@H](Cc3ccccc3)NC(=O)[C@H](Cc3ccccc3)NC(=O)[C@@H](N)CSSC[C@@H](C(=O)O)NC(=O)[C@H](Cc3ccccc3)NC(=O)[C@H]([C@@H](C)O)NC2=O)cc1 (H-CFF[dW][Phe(4-CH2NHiPr)]TFC-OH; disulfide 1-8) |  | > 10000 |  | > 10000 | 

Now from value to compound:

IC50 [1] [nM] | IC50 [2] [nM] | IC50 [3] [nM] | IC50 [4] [nM] | IC50 [5] [nM] | SMILES
24 | > 1000 | 633 | > 1000 | > 1000 | CC(C)NCc1ccc(C[C@@H]2NC(=O)[C@@H](Cc3ccc4ccccc4c3)NC(=O)[C@H](Cc3ccccc3)NC(=O)[C@H](Cc3ccccc3)NC(=O)[C@H](CCCCN)NC(=O)[C@@H](NC(=O)[C@@H](N)Cc3ccc(O)cc3)CSSC[C@@H](C(=O)O)NC(=O)[C@H](CO)NC(=O)[C@H]([C@@H](C)O)NC(=O)[C@H](Cc3ccccc3)NC(=O)[C@H]([C@@H](C)O)NC2=O)cc1
720 |  | 445 | > 10000 | > 1000 | CC(C)NCc1ccc(C[C@@H]2NC(=O)[C@@H](Cc3c[nH]c4ccccc34)NC(=O)[C@H](Cc3ccccc3)NC(=O)[C@H](Cc3ccccc3)NC(=O)[C@@H](NC(=O)[C@@H](N)Cc3ccc(O)cc3)CSSC[C@@H](C(=O)O)NC(=O)[C@H]([C@@H](C)O)NC(=O)[C@H](Cc3ccccc3)NC(=O)[C@H]([C@@H](C)O)NC2=O)cc1
> 1000 | > 10000 | > 10000 | > 10000 | > 10000 | CC(C)CN(Cc1ccc(C[C@@H]2NC(=O)[C@@H](Cc3c[nH]c4ccccc34)NC(=O)[C@H](Cc3ccccc3)NC(=O)[C@H](Cc3ccccc3)NC(=O)[C@H](CCCCN)NC(=O)[C@@H](N)CSSC[C@@H](C(=O)O)NC(=O)[C@H](CO)NC(=O)[C@H]([C@@H](C)O)NC(=O)[C@H](Cc3ccccc3)NC(=O)[C@H]([C@@H](C)O)NC2=O)cc1)CC(C)C
130 | > 1000 | 381 | > 1000 | > 1000 | CC(C)CNCc1ccc(C[C@@H]2NC(=O)[C@@H](Cc3c[nH]c4ccccc34)NC(=O)[C@H](Cc3ccccc3)NC(=O)[C@H](Cc3ccccc3)NC(=O)[C@H](CCCCN)NC(=O)[C@@H](N)CSSC[C@@H](C(=O)O)NC(=O)[C@H](CO)NC(=O)[C@H]([C@@H](C)O)NC(=O)[C@H](Cc3ccccc3)NC(=O)[C@H]([C@@H](C)O)NC2=O)cc1 (H-CKFF[dW][X1]TFTSC-OH; disulfide 1-11)
845 | > 1000 | 750 |  |  | CC(C)NCc1ccc(C[C@@H]2NC(=O)[C@@H](Cc3ccc4ccccc4c3)NC(=O)[C@H](Cc3ccccc3)NC(=O)[C@H](Cc3ccccc3)NC(=O)[C@H](CCCCN)NC(=O)[C@H](NC(=O)CCc3ccc(O)cc3)CSSC[C@@H](C(=O)O)NC(=O)[C@H](CO)NC(=O)[C@H]([C@@H](C)O)NC(=O)[C@H](Cc3ccccc3)NC(=O)[C@@H]([C@@H](C)O)NC2=O)cc1 (stereo in doubt; 30)
975 | > 10000 | > 1000 | > 10000 | > 1000 | CC(C)NCc1ccc(C[C@@H]2NC(=O)[C@@H](Cc3ccc4ccccc4c3)NC(=O)[C@H](Cc3ccccc3)NC(=O)[C@H](Cc3ccccc3)NC(=O)[C@H](CCCCN)NC(=O)[C@H](NC(=O)CCc3ccc(O)cc3)CSSC[C@@H](C(=O)O)NC(=O)[C@H](CO)NC(=O)[C@H]([C@@H](C)O)NC(=O)[C@H](Cc3ccccc3)NC(=O)[C@@H]([C@@H](C)O)NC2=O)cc1 (stereo in doubt; 31)
 | > 10000 | 345 | > 10000 |  | CC(C)NCc1ccc(C[C@@H]2NC(=O)[C@@H](Cc3c[nH]c4ccccc34)NC(=O)[C@H](Cc3ccccc3)NC(=O)[C@H](Cc3ccccc3)NC(=O)[C@H](CCCCN)NC(=O)[C@@H](N)CSSC[C@@H](C(=O)O)NC(=O)[C@H](CO)NC(=O)[C@H]([C@@H](C)O)NC(=O)[C@H](Cc3ccccc3)NC(=O)[C@H]([C@@H](C)O)NC2=O)cc1 (H-CKFF[dW][Phe(4-CH2NHiPr)]TFTSC-OH; disulfide 1-11)
 |  | 713 |  | > 10000 | CC(C)NCc1ccc(C[C@@H]2NC(=O)[C@@H](Cc3c[nH]c4ccccc34)NC(=O)[C@H](Cc3ccccc3)NC(=O)[C@H](Cc3ccccc3)NC(=O)[C@H](CCCCN)NC(=O)[C@@H](NC(=O)[C@@H](N)Cc3ccc(O)cc3)CSSC[C@@H](C(=O)O)NC(=O)[C@H](CO)NC(=O)[C@H]([C@@H](C)O)NC(=O)[C@H](Cc3ccccc3)NC(=O)[C@H]([C@@H](C)O)NC2=O)cc1
 |  | > 1000 | > 10000 | > 1000 | CC(C)NCc1ccc(C[C@@H]2NC(=O)[C@@H](Cc3c[nH]c4ccccc34)NC(=O)[C@H](Cc3ccccc3)NC(=O)[C@H](Cc3ccccc3)NC(=O)[C@H](CCCCN)NC(=O)[C@H](NC(=O)[C@@H](N)Cc3ccc(O)cc3)CSSC[C@@H](C(=O)O)NC(=O)[C@H](CO)NC(=O)[C@H]([C@@H](C)O)NC(=O)[C@H](Cc3ccccc3)NC(=O)[C@H]([C@@H](C)O)NC2=O)cc1

Source: ChEMBL document CHEMBL1134520, “Potent somatostatin undecapeptide agonists selective for somatostatin receptor 1 (sst1)” (J Med Chem, 2001)
